# Data reported in US20260158056A1, “USE OF LOW MOLECULAR WEIGHT HYALURONIC ACID FOR THE TREATMENT OF LUNG MUCOSAL INFLAMMATION” (INSTITUT NATIONAL DE LA SANTÉ ET DE LA RECHERCHE MÉDICALE, priority 2021, published 2026).
# How the values were obtained:
# [1] = test system: IL-8 secreted by non-CF human airway epithelial cells; experiment: IL-8 ELISA, non-CF airway epithelial cells cultured at the air-liquid interface (ALI); format: cell-based; details: FIG. 11, 14; 1 mg/mL from ALI creation, ALI day 15, vs control condition; n=1 non-CF patient
# Method: FIG. 11: Measurement by ELISA assay of the pro-inflammatory chemokine IL-8 secreted by non-CF human airway epithelial cells cultured at the air-liquid interface (ALI). Airway epithelial cells were seeded in bi-compartmental chambers and cultured in liquid-liquid condition until confluence was reached. At confluence, culture medium from the upper chamber was removed to create an air-liquid interface (ALI) that will favor epithelial cell differentiation. From the ALI creation, the different treatments (15-45 kDa sodium-hyaluronic acid (HA-Na 15-45 kDa) (ARD—Pomacle—France—as prepared according to WO2004050187), 15-30 kDa sodium-hyaluronic acid (HA-Na 15-30 kDa) (Sigma Aldrich), or 30-50 kDa sodium-hyaluronic acid (HA-Na 30-50 kDa) (Sigma Aldrich)) were added at 1 mg/mL to the culture medium in the basal chamber. The culture medium was renewed three times a week. At ALI day 15, the culture medium was replaced by fresh medium without any treatment. After a 4 h-period, this culture medium was collected and the IL-8 content was determined by ELISA assay. n=1 non-CF patient. p<0.001 (***); p<0.01 (**); p<0.05 (*). ns: non-significant.
# FIG. 14: Measurement by ELISA assay of the pro-inflammatory chemokine IL-8 secreted by non-CF human airway epithelial cells cultured at the air-liquid interface (ALI). Airway epithelial cells were seeded in bi-compartmental chambers and cultured in liquid-liquid condition until confluence was reached. At confluence, culture medium from the upper chamber was removed to create an air-liquid interface (ALI) that will favor epithelial cell differentiation. From the ALI creation, the different treatments (15-45 kDa sodium-hyaluronic acid (HA-Na 15-45 kDa) (ARD—Pomacle—France—as prepared according to WO2004050187), 15-45 kDa calcium-hyaluronic acid (HA-Ca 15-45 kDa; ARD) or 15-45 kDa potassium-hyaluronic acid (HA-K 15-45 kDa; ARD) were added at 1 mg/mL to the culture medium in the basal chamber. The culture medium was renewed three times a week. At ALI day 15, the culture medium was replaced by fresh medium without any treatment. After a for 4 h-period, this culture medium was collected and the IL-8 content was determined by ELISA assay. n=1 non-CF patient. p<0.001 (***); p<0.01 (**); p<0.05 (*). ns: non-significant.
# [2] = test system: mucin MUC-5B secreted by F508del/F508del CF human airway epithelial cells; experiment: MUC-5B ELISA, CF airway epithelial cells cultured at the air-liquid interface (ALI); format: cell-based
# Method: FIG. 8: Measurement by ELISA assay of the mucin MUC-5B secreted by F508del/F508del CF human airway epithelial cells cultured at the air-liquid interface (ALI). Airway epithelial cells were seeded in bi-compartmental chambers and cultured in liquid-liquid condition until confluence was reached. At confluence, culture medium from the upper chamber was removed to create an air-liquid interface (ALI) that will favor epithelial cell differentiation. From the ALI creation, the different treatments (15-45 kDa sodium-hyaluronic acid (HA-Na 15-45 kDa) (ARD—Pomacle—France—as prepared according to WO2004050187), 15-30 kDa sodium-hyaluronic acid (HA-Na 15-30 kDa) (Sigma Aldrich), or 30-50 kDa sodium-hyaluronic acid (HA-Na 30-50 kDa) (Sigma Aldrich)) were added at 1 mg/mL to the culture medium in the basal chamber. The culture medium was renewed three times a week. At ALI day 15 and ALI Day 25, the culture in the upper chamber was rinsed with PBS then, a small volume of fresh medium without any treatment was placed at the contact of the apical part of the epithelium. After a 4 h-period, this apical culture medium was collected and the MUC-5B content was determined by ELISA assay. n=3 different F508del/F508del CF patients. p<0.001 (***); p<0.01 (**); p<0.05 (*). ns: non-significant.
# FIG. 9: Measurement by ELISA assay of the mucin MUC-5B secreted by F508del/F508del CF human airway epithelial cells cultured at the air-liquid interface (ALI). Airway epithelial cells were seeded in bi-compartmental chambers and cultured in liquid-liquid condition until confluence was reached. At confluence, culture medium from the upper chamber was removed to create an air-liquid interface (ALI) that will favor epithelial cell differentiation. From the ALI creation, the different treatments (15-45 kDa sodium-hyaluronic acid (HA-Na 15-45 kDa) (ARD—Pomacle—France—as prepared according to WO2004050187), 15-45 kDa calcium-hyaluronic acid (HA-Ca 15-45 kDa; ARD), or 15-45 kDa potassium-hyaluronic acid (HA-K 15-45 kDa; ARD) were added at 1 mg/mL to the culture medium in the basal chamber. The culture medium was renewed three times a week. At ALI day 15 and ALI Day 25, the culture in the upper chamber was rinsed with PBS then, a small volume of fresh medium without any treatment was placed at the contact of the apical part of the epithelium. After a 4 h-period, this apical culture medium was collected and the MUC-5B content was determined by ELISA assay. n=3 different F508del/F508del CF patients. p<0.001 (***); p<0.01 (**); p<0.05 (*). ns: non-significant.
# FIG. 10: Measurement by ELISA assay of the mucin MUC-5B secreted by F508del/F508del CF human airway epithelial cells cultured at the air-liquid interface (ALI). Airway epithelial cells were seeded in bi-compartmental chambers and cultured in liquid-liquid condition until confluence was reached. At confluence, culture medium from the upper chamber was removed to create an air-liquid interface (ALI) that will favor epithelial cell differentiation. From the ALI creation, 15-45 kDa sodium-hyaluronic acid (HA-Na 15-45 kDa) (ARD—Pomacle—France—as prepared according to WO2004050187) was added at 2 mg/mL, 1 mg/mL or 0.5 mg/mL to the culture medium in the basal chamber. The culture medium was renewed three times a week. At ALI day 15 and ALI Day 25, the culture in the upper chamber was rinsed with PBS then, a small volume of fresh medium without any treatment was placed at the contact of the apical part of the epithelium. After a 4 h-period, this apical culture medium was collected and the MUC-5B content was determined by ELISA assay. n=3 different F508del/F508del CF patients. p<0.001 (***); p<0.01 (**); p<0.05 (*). ns: non-significant.
# [3] = 1 mg/mL, ALI day 15, vs control condition, n=3 CF patients
# [4] = 1 mg/mL, ALI day 25, vs control condition, n=3 CF patients
Substance,decrease in IL-8 secretion [1],"decrease in MUC-5B secretion [2, 3]","decrease in MUC-5B secretion [2, 4]","decrease in MUC-5B secretion ([2]; FIG. 10, 0.5 mg/mL, ALI day 15 and ALI day 25)","decrease in MUC-5B secretion ([2]; FIG. 10, 2 mg/mL, ALI day 15)","decrease in MUC-5B secretion ([2]; FIG. 10, 2 mg/mL, ALI day 25)"
15-30 kDa sodium-hyaluronic acid [HA-Na 15-30 kDa],60.6%,14.1%,17.3%,,,
15-45 kDa calcium-hyaluronic acid [HA-Ca 15-45 kDa],70.5%,85.5%,58.8%,,,
15-45 kDa potassium-hyaluronic acid [HA-K 15-45 kDa],57.9%,34.7%,,,,
15-45 kDa sodium-hyaluronic acid [HA-Na 15-45 kDa],69.7%,37.3%,33.2%,does not have any effect,97.9%,81.2%
30-50 kDa sodium-hyaluronic acid [HA-Na 30-50 kDa],66.6%,68.7%,67.1%,,,
